Values of other authors as cited in patent US4127534A, “Novel tripeptides, intermediates therefor and pharmaceutical compositions and methods employing said tripeptides” (priority 1977, dated 1978).

Columns and labels:
[1] = system: partially purified brain opiate receptor sites
[2] = injected directly into the brain of the rat

Q: What does the source list for “H-Tyr-Gly-Gly-Phe-Met-OH [methionine enkephalin]”?
A: binding to partially purified brain opiate receptor sites [1]: binds stereo-specifically; analgesic activity [2]: only weak analgesic agent of short duration
